# Test results: patent US9156834B2, “Derivatives of heteroarylsulfonamides, their preparation and their application in human therapy” (PIERRE FABRE MEDICAMENT, priority 2010, dated 2015)
# Counter-ions that a name gives are not always drawn.
# Target: T1, human isoform of the Kv1.5 channels (Homo sapiens, UniProt P22460)
# T1 construct: expressed in transfected cells; host or cells: HEK293
# Test: FLIPR thallium ion measurement on potassium channel Kv1.5
# Format: cell-based
# Conditions: HEK293 cells stably transfected with hKv1.5; compound 10 μM, 15 min at 37° C.; fluorescence normalised with 10 μM DPO
# Method: The pharmacological evaluation of the compounds on potassium channel Kv1.5 was undertaken using a 96-well plate and FLIPR technology by thallium ion measurement. The HEK293 cells, transfected in a stable manner with the human isoform of the Kv1.5 channels, are seeded 24 h before the experiment in 96-well plates ([…], 200 μl/well) with polylysine applied in the following culture medium: DMEM, 10% SVF, Penicillin/Streptomycin, G418 as the selection antibiotic.
# The FLIPR experiment is undertaken using “FLIPR Potassium Ion Channel Assay Kit”, as indicated by the manufacturer (Molecular Devices).
# Briefly, the culture medium is replaced by the solution containing the thallium marker for 90 min at 37° C. On conclusion of this step the compounds for testing are added to a final concentration of 10 μM in the well for 15 min at 37° C. The basic fluorescence is then read for 60 sec. The addition of depolarising medium (20 mM of potassium and 3 mM of final thallium) opens the potassium channels and causes an increase of the fluorescence of the thallium fluorophore corresponding to an influx of thallium ions through the hKv1.5 channels. The measurement is made 30 sec after the injection of the depolarising solution. The application of 10 μM DPO (Tocris, blocker of the Kv1.5 channels) enables the fluorescence to be normalised.
# T1 sequence (P22460 whole entry, canonical isoform): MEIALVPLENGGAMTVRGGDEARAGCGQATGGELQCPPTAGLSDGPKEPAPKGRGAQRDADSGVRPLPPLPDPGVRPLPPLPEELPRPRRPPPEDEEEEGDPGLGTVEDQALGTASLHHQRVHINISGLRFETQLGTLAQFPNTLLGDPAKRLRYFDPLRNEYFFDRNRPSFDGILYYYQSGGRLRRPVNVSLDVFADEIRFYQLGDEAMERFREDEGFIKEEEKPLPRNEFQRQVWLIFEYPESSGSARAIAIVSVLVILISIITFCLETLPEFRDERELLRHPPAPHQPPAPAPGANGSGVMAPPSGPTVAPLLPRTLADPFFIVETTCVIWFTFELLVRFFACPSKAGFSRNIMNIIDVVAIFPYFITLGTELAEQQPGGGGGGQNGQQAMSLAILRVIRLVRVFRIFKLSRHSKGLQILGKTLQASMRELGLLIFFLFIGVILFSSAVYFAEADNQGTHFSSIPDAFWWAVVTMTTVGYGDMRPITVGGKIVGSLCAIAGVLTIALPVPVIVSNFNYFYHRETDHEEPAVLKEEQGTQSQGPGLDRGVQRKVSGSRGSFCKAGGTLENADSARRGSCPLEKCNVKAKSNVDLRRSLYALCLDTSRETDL
SMILES,inhibition at 10 µM,% inhibition at 10 μM
"O=C(c1ccccc1NS(=O)(=O)c1ccc(C(F)(F)F)cn1)N1CCN(c2nc3ccc(F)cc3o2)CC1 [Example 1, N-(2-(4-(6-fluorobenzo[d]oxazol-2-yl)piperazine-1-carbonyl)phenyl)-5-(trifluoromethyl)pyridine-2-sulfonamide]",61.4%,–
"O=C(c1ccccc1NS(=O)(=O)c1ccccn1)N1CCN(c2nc3ccc(F)cc3s2)CC1 [Example 2, N-(2-(4-(6-fluorobenzo[d]thiazol-2-yl)piperazine-1-carbonyl)phenyl)-pyridine-2-sulfonamide]",100%,–
"O=C(c1ccccc1NS(=O)(=O)c1ccccn1)N1CCN(c2nc3ccc(Br)cc3s2)CC1 [Example 3, N-(2-(4-(6-bromobenzo[d]thiazol-2-yl)piperazine-1-carbonyl)phenyl)-pyridine-2-sulfonamide]",–,100%
"O=C(c1ccccc1NS(=O)(=O)c1ccccn1)N1CCN(c2nc3ccc(Cl)cc3s2)CC1 [Example 4, N-(2-(4-(6-chlorobenzo[d]thiazol-2-yl)piperazine-1-carbonyl)phenyl)pyridine-2-sulfonamide hydrochloride]",100%,–
"Cc1cccc2sc(N3CCN(C(=O)c4ccccc4NS(=O)(=O)c4ccccn4)CC3)nc12 [Example 5, N-(2-(4-(4-methylbenzo[d]thiazol-2-yl)piperazine-1-carbonyl)phenyl)-pyridine-2-sulfonamide]",90%,–
"O=C(c1ccccc1NS(=O)(=O)c1ccccn1)N1CCN(c2nc3cccc(Cl)c3s2)CC1 [Example 6, N-(2-(4-(7-chlorobenzo[d]thiazol-2-yl)piperazine-1-carbonyl)phenyl)-pyridine-2-sulfonamide]",91.8%,–
"O=C(c1ccccc1NS(=O)(=O)c1ccccn1)N1CCN(c2nc3cc(C(F)(F)F)ccc3s2)CC1 [Example 7, N-(2-(4-(5-(trifluoromethyl)benzo[d]thiazol-2-yl)piperazine-1-carbonyl)phenyl)pyridine-2-sulfonamide]",94.9%,–
"O=C(c1ccccc1NS(=O)(=O)c1ccc(C(F)(F)F)cn1)N1CCN(c2nc3ccc(Cl)cc3s2)CC1 [Example 8, N-(2-(4-(6-chlorobenzo[d]thiazol-2-yl)piperazine-1-carbonyl)phenyl)-5-(trifluoromethyl)pyridine-2-sulfonamide]",94.7%,–
"Cc1cccc(S(=O)(=O)Nc2ccccc2C(=O)N2CCN(c3nc4ccc(Br)cc4s3)CC2)n1 [Example 9, N-(2-(4-(6-bromobenzo[d]thiazol-2-yl)piperazine-1-carbonyl)phenyl)-6-methylpyridine-2-sulfonamide dihydrochloride]",62.8%,–
"O=C(c1cccc(NS(=O)(=O)c2ccccn2)c1)N1CCN(c2nc3ccc(Cl)cc3o2)CC1 [Example 10, N-(3-(4-(6-chlorobenzo[d]oxazol-2-yl)piperazine-1-carbonyl)-phenyl)pyridine-2-sulfonamide]",58.9%,–
"O=C(c1cccc(NS(=O)(=O)c2ccccn2)c1)N1CCN(c2nc3ccc(Cl)cc3s2)CC1 [Example 11, N-(3-(4-(6-chlorobenzo[d]thiazol-2-yl)piperazine-1-carbonyl)phenyl)-pyridine-2-sulfonamide]",75.1%,–
"Cc1cccc(S(=O)(=O)Nc2cccc(C(=O)N3CCN(c4nc5ccc(Cl)cc5s4)CC3)c2)n1 [Example 12, N-(3-(4-(6-chlorobenzo[d]thiazol-2-yl)piperazine-1-carbonyl)-phenyl)-6-methylpyridine-2-sulfonamide]",52.6%,–
"O=C(c1ccc(NS(=O)(=O)c2ccccn2)cc1)N1CCN(c2nc3ccc(F)cc3o2)CC1 [Example 13, N-(4-(4-(6-fluorobenzo[d]oxazol-2-yl)piperazine-1-carbonyl)phenyl)pyridine-2-sulfonamide]",100%,–
"O=C(c1ccc(NS(=O)(=O)c2ccccn2)cc1)N1CCN(c2nc3ccc(Cl)cc3o2)CC1 [Example 14, N-(4-(4-(6-chlorobenzo[d]oxazol-2-yl)piperazine-1-carbonyl)phenyl)pyridine-2-sulfonamide]",68.7%,–
"O=C(c1ccc(NS(=O)(=O)c2ccccn2)cc1)N1CCN(c2nc3ccc(Cl)cc3s2)CC1 [Example 15, N-(4-(4-(6-chlorobenzo[d]thiazol-2-yl)piperazine-1-carbonyl)-phenyl)pyridine-2-sulfonamide]",70.2%,–
"O=C(c1ccccc1NS(=O)(=O)c1cccc2cccnc12)N1CCN(c2nc3ccc(Br)cc3s2)CC1 [Example 16, N-(2-(4-(6-bromobenzo[d]thiazol-2-yl)piperazine-1-carbonyl)phenyl)-quinoline-8-sulfonamide]",68%,–

SMILES,inhibition at 10 µM,% inhibition at 10 μM
"O=C(c1ccccc1NS(=O)(=O)c1cccc2cccnc12)N1CCN(c2nc3ccc(Cl)cc3o2)CC1 [Example 17, N-(2-(4-(6-chlorobenzo[d]oxazol-2-yl)piperazine-1-carbonyl)-phenyl)quinoline-8-sulfonamide]",70.8%,–
"O=C(c1ccccc1NS(=O)(=O)c1cccc2cccnc12)N1CCN(c2nc3ccc(Cl)cc3s2)CC1 [Example 18, N-(2-(4-(6-chlorobenzo[d]thiazol-2-yl)piperazine-1-carbonyl)-phenyl)quinoline-8-sulfonamide]",91.5%,–
"O=C(c1ccccc1NS(=O)(=O)c1cccc2cccnc12)N1CCN(c2nc3ccc(OC(F)(F)F)cc3s2)CC1 [Example 19, N-(2-(4-(6-(trifluoromethoxy)benzo[d]thiazol-2-yl)piperazine-1-carbonyl)phenyl)quinoline-8-sulfonamide]",50.2%,–
"Cc1cccc2sc(N3CCCN(C(=O)c4ccccc4NS(=O)(=O)c4cccc5cccnc45)CC3)nc12 [Example 20, N-(2-(4-(4-methylbenzo[d]thiazol-2-yl)-1,4-diazepane-1-carbonyl)-phenyl)quinoline-8-sulfonamide]",82.8%,–
"Cc1ccc2nc(N3CCC(Oc4ccccc4NS(=O)(=O)c4ccccn4)CC3)oc2c1 [Example 21, N-(2-(1-(6-methylbenzo[d]oxazol-2-yl)piperidin-4-yloxy)phenyl)pyridine-2-sulfonamide]",54.6%,–
"O=S(=O)(Nc1ccccc1OC1CCN(c2nc3ccc(Cl)cc3o2)CC1)c1ccccn1 [Example 22, N-(2-(1-(6-chlorobenzo[d]oxazol-2-yl)piperidin-4-yloxy)phenyl)-pyridine-2-sulfonamide]",58.8%,–
"CC(C)(C)c1ccc2oc(N3CCC(Oc4ccccc4NS(=O)(=O)c4ccccn4)CC3)nc2c1 [Example 23, N-(2-(1-(5-tert-butylbenzo[d]oxazol-2-yl)piperidin-4-yloxy)phenyl)pyridine-2-sulfonamide]",51.8%,–
"O=S(=O)(Nc1ccccc1OC1CCN(c2nc3cc(Cl)ccc3o2)CC1)c1ccccn1 [Example 24, N-(2-(1-(5-chlorobenzo[d]oxazol-2-yl)piperidin-4-yloxy)phenyl)-pyridine-2-sulfonamide]",81%,–
"O=S(=O)(Nc1ccccc1OC1CCN(c2nc3ccccc3s2)CC1)c1ccccn1 [Example 25, N-(2-(1-(benzo[d]thiazol-2-yl)piperidin-4-yloxy)phenyl)pyridine-2-sulfonamide]",90.2%,–
O=S(=O)(Nc1ccccc1OC1CCN(c2nc3ccc(Cl)cc3s2)CC1)c1ccccn1 [Example 26],65.8%,–
"O=S(=O)(Nc1ccccc1OC1CCN(c2nc3ccc(Br)cc3s2)CC1)c1ccccn1 [Example 27, N-(2-(1-(6-bromobenzo[d]thiazol-2-yl)piperidin-4-yloxy)phenyl)-pyridine-2-sulfonamide]",100%,–
"O=S(=O)(Nc1ccccc1OCC1CCN(c2nc3ccccc3s2)C1)c1ccccn1 (stereo not shown) [Example 28, N-(2-((1-(benzo[d]thiazol-2-yl)pyrrolidin-3-yl)methoxy)phenyl)-pyridine-2-sulfonamide]",76%,–
"O=S(=O)(Nc1ccccc1OCC1CCN(c2nc3ccc(F)cc3s2)C1)c1ccccn1 (stereo not shown) [Example 29, N-(2-((1-(6-fluorobenzo[d]thiazol-2-yl)pyrrolidin-3-yl)methoxy)phenyl)pyridine-2-sulfonamide]",64.5%,–
"O=S(=O)(Nc1ccccc1OCC1CCN(c2nc3ccc(Cl)cc3s2)C1)c1ccccn1 (stereo not shown) [Example 30, N-(2-((1-(6-chlorobenzo[d]thiazol-2-yl)pyrrolidin-3-yl)methoxy)phenyl)pyridine-2-sulfonamide]",54.1%,–
"Cc1cccc2sc(N3CCC(COc4ccccc4NS(=O)(=O)c4ccccn4)C3)nc12 (stereo not shown) [Example 31, N-(2-((1-(4-methylbenzo[d]thiazol-2-yl)pyrrolidin-3-yl)methoxy)phenyl)pyridine-2-sulfonamide]",56%,–
"COc1cccc2sc(N3CCC(COc4ccccc4NS(=O)(=O)c4ccccn4)C3)nc12 (stereo not shown) [Example 32, N-(2-((1-(4-methoxybenzo[d]thiazol-2-yl)pyrrolidin-3-yl)methoxy)-phenyl)pyridine-2-sulfonamide]",53.7%,–

# Test system: not given
# Test: not given
# Conditions: not given
row,SMILES,melting point
1,"Cc1cccc(S(=O)(=O)Nc2ccccc2C(=O)N2CCN(c3nc4ccc(Br)cc4s3)CC2)n1 (as salt: hydrochloride) [Example 9, N-(2-(4-(6-bromobenzo[d]thiazol-2-yl)piperazine-1-carbonyl)phenyl)-6-methylpyridine-2-sulfonamide dihydrochloride]",180 °C
2,"O=C(c1ccccc1NS(=O)(=O)c1ccccn1)N1CCN(c2nc3ccc(Br)cc3s2)CC1 [Example 3, N-(2-(4-(6-bromobenzo[d]thiazol-2-yl)piperazine-1-carbonyl)phenyl)-pyridine-2-sulfonamide]",102 °C
